# Assay results as given in patent publication US6444614B2, “Aspartic acid derivative-containing compositions and use thereof in stimulating and/or regulating plant and plant precursor growth” (LidoChem Inc., priority 2000, dated 2002).
# Structures can show the parent of a compound that is named as a salt.
# Columns and labels:
# Lettuce seeds = settings: cultured in a fertilizer soln. contg. 100 ppm; cited from earlier work
# [1] = test system: germinated sweet corn seeds; test: Germinated sweet corn seeds on water plates treated with tetra-sodium salt of EDDS (Example I); format: in vivo, Zea mays L. var. saccharata; settings: for germinating-seed stimulating concentration: germinating sweet corn seed, treating solution; for NUMBER OF SEED GERMINATED AND SURVIVED: Sweet corn, 10 seeds per plate
# Method: (§1) Styrofoam plates were each charged with 80 ml. water. The plates are titled: (a) the ‘control’ plates; (b) the ‘Treatment 1’ plates; and (c) the ‘Treatment 2’ plates.
# (§2) Into the ‘control’ plates, the ‘Treatment 1’ plates and the ‘Treatment 2’ plates were placed, at the loading of 10 seeds per plate, germinated sweet corn seeds, germinated field corn seeds, germinated snap bean, seeds, germinated cantaloupe melon seeds and germinated soy bean seeds.
# (§3) The ‘Treatment 1’ plates were then each treated with 0.1 ml. of a 38% aqueous solution of the tetra-sodium salt of EDDS (having the structure as set forth in FIG. 15), or 0.000475 gm./plate, or 475 ppm per plate.
# (§4) The ‘Treatment 2’ plates were then each treated with 1 ml. of a 38% aqueous solution of the tetra-odium salt of EDDS, or 0.00475 gm./plate or 4750 ppm per plate.
# (§5) No EDDS salt was added to the ‘control’ plate.
# (§6) Over a period of 9 days, each plate had distilled water added thereto, as needed, in order to make up for the evaporation of the water during the 9 day period.
# (§7) 9 days after the trial commenced, the number of germinated seeds which survived were as set forth in attached Table I.
# sweet corn seeds = test: Sweet corn seeds on water plates treated with IDS salt alone or with EDDS salt (Example II); format: in vivo, Zea mays L. var. saccharata; settings: 9 day period; IDS salt 4630 or 463 ppm per plate, or IDS + EDDS salt mixture (Treatment 3)
# Method: Styrofoam plates were each charged with 80 ml. water. The plates are titled: (a) the ‘control’ plates; (b) the ‘Treatment 1’ plates; (c) the ‘Treatment 2’ plates and (d) the ‘Treatment 3’ plates.
# Into the ‘control’ plates, the ‘Treatment 1’ plates, the ‘Treatment 2’ plates and the ‘Treatment 3’ plates, were placed, at a loading of 6 seeds per plate, sweet corn seeds, field corn seeds, cantaloupe melon seeds and soy bean seeds.
# The ‘Treatment 1’ plates were then each treated with 1 ml. of a 37% solution of the tri-potassium salt of IDS (having the structure as set forth in FIG. 17), or 0.00463 gm./plate or 4630 ppm per plate.
# The ‘Treatment 2’ plates were then each treated with 0.1 ml. of a 37% solution of the tri-potassium salt of IDS, or 0.000463 gm./plate, or 463 ppm per plate.
# The ‘Treatment 3’ plates were then each treated with a mixture 0.5 ml. of a 37% solution of the tri-potassium salt of IDS and 0.5 ml. of a 38% solution of the tetra-sodium salt of EDDS, or 0.000231 gm/plate of the IDS salt and 0.000238 gm./plate of the EDDS salt.
# No EDDS or IDS salts were added to the control plate.
# Over a period of 9 days, each plate had distilled water added thereto, as needed, in order to make up for the evaporation of water during the 9 day period.
# 9 days after the trial commenced, the number of germinated seeds which survived were as set forth in attached Table II.
# Mexican Heather plants = test: Soil application of IDS and/or EDDS free acids to Mexican heather plants (Example IV); format: in vivo, Cuphea hyssopifolia Kunth.; settings: 200 ppm free acid; for root mass versus vegetative growth: within 10 mm of each plant
# Method: Four sets of six Mexican Heather plants each were placed on trays without transplanting. 0.2 gm/liter stock solutions of IDS and EDDS free acids prepared according to Example III, supra, were used, in three different treatments (EDDS alone, IDS alone and a 50:50 mixture of EDDS and IDS) to treat the three sets of plants as set forth in Table IV, attached, by placing the solutions into the soil within 10 mm. of each of the plants. A fourth set was treated with distilled water (the ‘control’ set).
# [2] = test system: germinated cantaloupe melon seeds; test: Germinated cantaloupe melon seeds on water plates treated with tetra-sodium salt of EDDS (Example I); format: in vivo; settings: 10 seeds per plate, after 9 days
# Method: as §1, §2, §3, §4, §5, §6, §7
# [3] = test system: germinated snap bean seeds; test: Germinated snap bean seeds on water plates treated with tetra-sodium salt of EDDS (Example I); format: in vivo, Phaseolus vulgaris L.; settings: Snap beans, 10 seeds per plate, after 9 days
# Method: as §1, §2, §3, §4, §5, §6, §7
# [4] = test system: germinated field corn seeds; test: Germinated field corn seeds on water plates treated with tetra-sodium salt of EDDS (Example I); format: in vivo, Zea mays L.; settings: after 9 days; for NUMBER OF SEED GERMINATED AND SURVIVED: Field corn, 10 seeds per plate
# Method: as §1, §2, §3, §4, §5, §6, §7
# [5] = Treatment 1 (EDDS at 0.1 ml Per liter; 475 ppm per plate)
# [6] = Treatment 2 (EDDS at 1 ml Per liter; 4750 ppm per plate)
compound,measurement,setting,value
"O=C(O)C[C@H](NCCN[C@@H](CC(=O)O)C(=O)O)C(=O)O [S,S-ethylenediamine-N,N-disuccinic acid]",plant growth of lettuce,Lettuce seeds,good plant growth
"O=C(O)CC(N[C@@H](CC(=O)O)C(=O)O)C(=O)O (stereo partly shown) [tri-potassium salt of IDS, N-(1,2-dicarboxyethyl)aspartic acid]",germinating-seed stimulating concentration,[1],about 1×10^−4 gram moles per liter
same,"germination and uniformity of seedling growth, sweet corn seeds",sweet corn seeds,germinated and the resulting seedlings started to grow more uniformly
"O=C(O)CC(NCCNC(CC(=O)O)C(=O)O)C(=O)O (mixture of isomers) [EDDS free acid, N,N′-1,2-ethanediylbis-aspartic acid]",leaf position and internode lengths at the end of the experiment,Mexican Heather plants,the plant leaves are lower on the main stem and internode lengths are shortened
same,root mass versus vegetative growth,Mexican Heather plants,promoted a greater root mass at the expense of vegetative growth
"O=C(O)CC(N[C@@H](CC(=O)O)C(=O)O)C(=O)O (stereo partly shown) [IDS free acid, N-(1,2-dicarboxyethyl)aspartic acid]",root mass versus vegetative growth,Mexican Heather plants,"promoted a greater root mass at the expense of vegetative growth, although to a significantly lesser extent than done using EDDS"
"O=C(O)CC(NCCNC(CC(=O)O)C(=O)O)C(=O)O (mixture of isomers) [tetra-sodium salt of EDDS, N,N′-1,2-ethanediylbis-aspartic acid]",NUMBER OF SEED GERMINATED AND SURVIVED,[2]; [5],1
same,NUMBER OF SEED GERMINATED AND SURVIVED,[2]; [6],0
same,NUMBER OF SEED GERMINATED AND SURVIVED,"[1]; Treatment 1 (EDDS at 0.1 ml Per liter; 475 ppm per plate), after 9 days",10
same,NUMBER OF SEED GERMINATED AND SURVIVED,"[1]; Treatment 2 (EDDS at 1 ml Per liter; 4750 ppm per plate), after 9 days",7
same,"germination and growth of the germinated sweet corn seeds, as compared with the control","[1]; Treatment 1 plates (475 ppm per plate), after 9 days",uniform germination and growth
same,germination and growth of the sweet corn,"[1]; Treatment 2 plates (4750 ppm per plate), after 9 days",inhibition of the germination and growth
same,action on germinating seed,[1]; at a concentration of about 10×10^−4 gram moles per liter,acts as a germinating seed growth regulator
same,germinating-seed stimulating concentration,[1],about 1×10^−4 gram moles per liter
same,NUMBER OF SEED GERMINATED AND SURVIVED,[3]; [5],5
same,NUMBER OF SEED GERMINATED AND SURVIVED,[3]; [6],1
same,NUMBER OF SEED GERMINATED AND SURVIVED,[4]; [5],9
same,NUMBER OF SEED GERMINATED AND SURVIVED,[4]; [6],4
same,germination and growth of the field corn,[4]; Treatment 2 plates (4750 ppm per plate),inhibition of the germination and growth
